Values joined by “and” are separate entries in the source; they are usually repeats but may differ in a detail not shown here. Equal entries are not always repeated.
How the values were obtained:
[1] = system: KPC mouse model of PDAC; experiment: KPC in vivo survival study; settings: KPC mice; PXS-5505 20 mg kg−1 i.p. daily, gemcitabine 100 mg kg−1 i.p. twice weekly
From the text: (§1) The maximal tumor burden allowed by ethics was not exceeded.
as §1

[2] = system: KPC CCs liver colonization; experiment: Intrasplenic model of liver colonization, late administration of treatment (established metastases); type: in vivo, mouse; settings: for Quantification of metastases/mm2 (late administration): Figure 5F, intrasplenic liver colonization, individual animals; for metastatic burden in liver: treatment from day 4, established metastases
Description: Fig. 5 PXS-5505 administered in intrasplenic models of liver colonization. a, Schematic of the intrasplenic model of liver colonization with early administration of treatment. CCs were implanted into the spleen of BALB/c-Fox1nuAusb mice under anesthesia on day 0. Treatment with 0.9% saline (vehicle); twice-weekly Gem (100 mg kg^−1 i.p.) (Gem); daily PXS-5505 at 20 mg kg^−1 i.p. (PXS-5505) or daily PXS-5505 at 20 mg kg^−1 i.p. + twice-weekly Gem at 100 mg kg^−1 i.p. (PXS-5505 + Gem) was administered from day 1. At the end point (day 10) livers were collected and H&E-stained for scoring. Representative images of H&E-stained liver (taken from one biologically independent animal). Scale bar, 100 μm. b, Representative images of H&E-stained livers from each treatment group (n = 1 FOV taken from one biologically independent animal per group). Scale bars, 100 μm. c, Quantification of metastases per mm^2 (n = 9 biologically independent animals per group). Data are mean ± s.d. […] Data are mean ± s.d. Two-tailed P values were determined by an unpaired, nonparametric t-test with a Mann–Whitney U-test correction (comparison between two groups). e, Schematic of intrasplenic model of liver colonization with late administration of treatment. CCs were implanted into the spleen of BALB/c-Fox1nuAusb mice under anesthesia on day 0. Treatment with 0.9% saline (vehicle); twice-weekly Gem (100 mg kg^−1 i.p.) (Gem); daily PXS-5505 at 20 mg kg^−1 i.p. (PXS-5505); or daily PXS-5505 at 20 mg kg^−1 i.p. + three doses of Gem (100 mg kg^−1 i.p. (PXS-5505 + Gem) was administered from day 4. Representative images of H&E-stained liver (taken from one biologically independent animal). Scale bar, 100 μm. f, Quantification of metastases at endpoint (n = 10 biologically independent animals per treatment group, n = 5 biologically independent animals at day 4 for confirmation of overt metastases). Data are mean ± s.d. P values were determined by an unpaired, nonparametric t-test with a Mann–Whitney U-test correction (comparison between two groups). g, Representative images of H&E-stained livers from each treatment group. Scale bars, 100 μm. Source data
For the intrasplenic models, animals were randomized before receiving treatment. GLP-grade PXS-5505 (20 mg kg^−1) was administered daily i.p. (starting day 0 for the early stage and day 4 for the late stage) until the end point and gemcitabine (100 mg kg^−1) was administered on days 3, 6 and 9 for the early stage and days 5, 7 and 10 for the late stage. […]
The 4-µm formalin-fixed paraffin-embedded (FFPE) sections were cut and stained for H&E following standard histopathology methodologies or stained for CK19 using the Bond RX H2(30) protocol detailed above. […] The total number of liver metastases were quantified and determined using QuPath[57].

With Nc1ccn([C@@H]2O[C@H](CO)[C@@H](O)C2(F)F)c(=O)n1 [Gem, gemcitabine] the “Median survival since diagnosis” value [1] was 125 days, the “Quantification of metastases/mm2 (late administration)” value [2] was 0.001632 metastases/mm2 and 0.001329 metastases/mm2 and 0.001736 metastases/mm2 and 0.001305 metastases/mm2 and 0.001793 metastases/mm2 and 0.001126 metastases/mm2 and 0.001529 metastases/mm2 and 0.001107 metastases/mm2 and 0.001352 metastases/mm2 and 0.001209 metastases/mm2 and the “metastatic burden in liver” value [2] was “did not significantly alter metastatic burden”.
In the case of Cl.Cl.NC/C=C(\F)CS(=O)(=O)c1cccc2cccnc12.O [PXS-5505, (Z)-3-fluoro-4-(quinolin-8-ylsulfonyl)but-2-en-1-amine dihydrochloride monohydrate], the “Median survival since diagnosis” value [1] is reported as 81 days, the “Quantification of metastases/mm2 (late administration)” value [2] is reported as 0.001672 metastases/mm2 and 0.001212 metastases/mm2 and 0.001664 metastases/mm2 and 0.001776 metastases/mm2 and 0.002261 metastases/mm2 and 0.001845 metastases/mm2 and 0.0007878 metastases/mm2 and 0.001204 metastases/mm2 and 0.001477 metastases/mm2 and 0.001663 metastases/mm2 and the “metastatic burden in liver” value [2] is reported as “did not significantly alter metastatic burden”.
